According to patent US4462819A, “Urease inhibited urea based fertilizer compositions containing organo boron acid compounds” (Allied Corporation, priority 1983, dated 1984):

Experiments:
urease [1] = experiment: Evaluation of urease inhibiting activity in soil, Test A (test compound and urea applied together); assay type: biochemical; design: key: A=excellent inhibition; B=partial inhibition; C=no inhibition; conditions: 800 μg test compound and 42.8 mg urea in 20 g air-dry soil (Cazenovia sandy loam pH 7.2), 25° C., 3 days; remaining urea, relative to control without test compound
Method: Certain selected organo boron acid compounds were evaluated for urease inhibiting activity. The tests were run in a New York soil (Cazenovia sandy loam pH 7.2). Test A evaluations (run in triplicate) consisted of applying 800 μg of test compound in 5 mL water and 42.8 mg urea in 1 mL water to 20 g air-dry soil in a glass bottle. The bottle was capped with perforated aluminum foil and incubated at 25° C. for 3 days prior to extraction with a 100 mL 2M KCL solution containing 0.5 mg phenylmercuric acetate. The extracts were then analyzed for remaining urea using an autoanalyzer.

urease [2] = experiment: Evaluation of urease inhibiting activity in soil, Test B (test compound incubated in soil 3 days before urea was added); assay type: biochemical; design: key: A=excellent inhibition; B=partial inhibition; C=no inhibition; conditions: 800 μg test compound incubated in 20 g soil (Cazenovia sandy loam pH 7.2) for 3 days before urea was added; analysis 3 days after urea addition; relative to control without test compound

Question: Which results are given for `Nc1ccccc1B(O)O` [X, 2-Aminobenzeneboronic Acid]?
Answer: % INHIBITION (TEST A) (urease [1]): C; % INHIBITION (TEST B) (urease [2]): A

Question: `Nc1ccc(B(O)O)cc1` [XII, 4-Aminobenzeneboronic Acid] was tested. Which “% INHIBITION (TEST A)” value (urease [1]) did it give?
Answer: The value was “B”.

Question: And the “% INHIBITION (TEST B)” value (urease [2])?
Answer: Its value is “A”.

Question: For `Cl.ONc1ccccc1B(O)O` [XIII, 2-Hydroxylaminobenzeneboronic Acid Hydrochloride], which “% INHIBITION (TEST A)” value (urease [1]) is on record?
Answer: The value was “C”.

Question: What about the “% INHIBITION (TEST B)” value (urease [2]) of the same compound?
Answer: The value was “A”.

Question: For `Cl.ONc1cccc(B(O)O)c1` [XIV, 3-Hydroxylaminobenzeneboronic Acid Hydrochloride], which “% INHIBITION (TEST A)” value (urease [1]) is on record?
Answer: Its value is “B”.

Question: And the “% INHIBITION (TEST B)” value (urease [2])?
Answer: Its value is “B”.

Question: `OB(O)c1cccc(O)c1` [XIX, 3-Hydroxybenzeneboronic Acid] was tested. Which “% INHIBITION (TEST A)” value (urease [1]) did it give?
Answer: The value was “B”.

Question: And the “% INHIBITION (TEST B)” value (urease [2])?
Answer: Its value is “A”.

Question: How did the “% INHIBITION (TEST A)” value (urease [1]) turn out when `Cl.ONc1ccc(B(O)O)cc1` [XV, 4-Hydroxylaminobenzeneboronic Acid Hydrochloride] was run?
Answer: Its value is “A”.

Question: What about the “% INHIBITION (TEST B)” value (urease [2]) of the same compound?
Answer: Its value is “A”.

Question: Which “% INHIBITION (TEST A)” value (urease [1]) does the source give for `NC(=O)Nc1cccc(B(O)O)c1` [XVI, 3-Ureidophenylboric Acid] here?
Answer: Its value is “C”.

Question: And the “% INHIBITION (TEST B)” value (urease [2])?
Answer: Its value is “B”.

Question: What does the source list for `OB1OCc2ccccc21` [XVII, Borphthalide]?
Answer: % INHIBITION (TEST A) (urease [1]): C; % INHIBITION (TEST B) (urease [2]): A

Question: Which results are given for `OB1ON=Cc2ccccc21` [XVIII, 4-Hydroxy-4,3-boroxaroisoquinoline]?
Answer: % INHIBITION (TEST A) (urease [1]): B; % INHIBITION (TEST B) (urease [2]): B
